{
  "source": "patent US20220047687A1",
  "about": "“CHEMICAL SCALPEL” (FUNDACIÓN INSTITUTO DE INVESTIGACIÓN SANITARIA FUNDACIÓN …, priority 2019, published 2022)",
  "key": {"[1]": {"test_system": "peritoneal carcinomatosis (DHD cells)", "assay": "Survival and necropsy of rats with carcinomatosis after peritoneal washing (groups D, E, F)", "format": "in vivo, rat", "conditions": "for Observations (necropsy): group E, Mito 5 mg; for outcome of group E: mitomycin 5 mg/animal, large amount of analgesia", "experimental": "(§1) The procedure was performed 2 times in the TCQ group, the first time with collagenase and after 2 minutes peritoneal washing with mitomycin C at the different concentrations to be tested was repeated. […] Blood was also collected from all the animals before sacrificing them, the blood was processed within the hour following its extraction to obtain plasma and to analyze, on one hand, the existence of the mutated KRAS oncogene (mutation in codon 12 of exon 1 expressed by DHD cells), and on the other hand the existence of collagenase traces or residues in blood after the peritoneal washes. A digital PCR was used for the KRAS oncogene localization study. For the collagenase trace study, the anonymized samples were sent to Lyposmol laboratories for the performance of specific anti-MMP-1 and anti-MMP-2 ELISAS.\nEach group initially consisted of 6 rats (2×3)."}, "mutated KRAS oncogene": {"test_system": "mutated KRAS oncogene", "assay": "Digital PCR of KRAS in plasma", "format": "in vivo, rat", "conditions": "for Mutated KRAS event no.: plasma", "experimental": "as §1\nTo analyze the presence of mutated KRAS in the blood of the different groups by means of digital PCR, DNA was extracted from at least 2 ml of plasma/group by means of the QlAamp Circulating Nucleic Acid kit according to the manufacturer's data and the results were those listed in Table 4."}, "[2]": {"test_system": "abdominal organs and peritoneum", "assay": "Survival and necropsy of healthy rats after peritoneal washing (groups A, B)", "from_the_text": "During this phase, a series of survival experiments were established with various work groups and subgroups to learn about the co-adjuvant or enhancing role of collagenase in the treatment of peritoneal tumors with chemotherapeutic agents such as mitomycin C:\nEach group initially consisted of 6 rats (2×3). In the initial design, 3 animals were sacrificed after 15 days and the rest were left until the conditions of the animals required them to be sacrificed (subcutaneous tumor growth >0.5 cm in diameter) or a maximum of 2 months."}},
  "note": "Entries after “also recorded” stand apart in the source; their conditions may differ.",
  "data": [
    {"smiles": "CO[C@@]12[C@H](COC(N)=O)C3=C(C(=O)C(C)=C(N)C3=O)N1C[C@@H]1N[C@@H]12", "note": "[Mitomycin C, mitomycin C]", "values": [
      {"measurement": "Observations (necropsy)", "setting": "[1]; 1 week, 1 animal", "result": "Endpoint criterion"},
      {"measurement": "Observations (necropsy)", "setting": "[1]; 2 weeks, 2 animals", "result": "Endpoint criterion"},
      {"measurement": "Observations (necropsy)", "setting": "[1]; 72 h, 3 animals", "result": "Endpoint criterion"},
      {"measurement": "outcome of group E", "setting": "[1]", "result": "all the animals had to be sacrificed due to endpoint criterion"},
      {"measurement": "outcome of group E", "setting": "[1]; listed as mitomycin", "result": "Half of the animals were found dead the first night after surgery"},
      {"measurement": "mutated KRAS in the plasma, assessment", "setting": "mutated KRAS oncogene; group E (DHD + mitomycin C 5 mg/animal), only such group among the treatments", "result": "positive mutated KRAS in the plasma"},
      {"measurement": "Mutated KRAS event no.", "setting": "mutated KRAS oncogene; group B (healthy rats, mitomycin)", "result": 0},
      {"measurement": "Mutated KRAS event no.", "setting": "mutated KRAS oncogene; group E (DHD + Mito 5 mg/animal)", "result": 524},
      {"measurement": "necropsies of group B1", "setting": "[2]; 5 mg of mitomycin", "result": "many irritated and bloody adhesions, and thin organ walls and vessels"},
      {"measurement": "clinical condition", "setting": "[2]; group B, high dose 5 mg/animal", "result": "always lethargic and exhibit very little activity"},
      {"measurement": "survival time", "setting": "[2]; group B, high dose 5 mg/animal, despite continuous analgesia", "result": "≤ 2", "unit": "weeks"},
      {"measurement": "Observations (necropsy)", "setting": "[2]; group B-1, healthy rats, 5 mg, 1 week, 2 animals, listed as Mito", "result": "Significant weight loss. Viscera affected"},
      {"measurement": "Observations (necropsy)", "setting": "[2]; group B-1, healthy rats, 5 mg, 1 week, 2 animals, listed as mitomycin", "result": "all the abdominal organs are in a relaxed and retracted state (with kidneys that appear necrotic and liver that appears collapsed), the omentum can be ruptured upon contact, and the large intestine obstructed"},
      {"measurement": "Observations (necropsy)", "setting": "[2]; group B-1, healthy rats, 5 mg, 5 days, 1 animal", "result": "intestinal puncture"},
      {"measurement": "Observations (necropsy)", "setting": "[2]; group B-2, healthy rats, 0.1 mg, 1 week, 1 animal", "result": "Organs with thinning and bloody walls; also recorded: Many adhesions"},
      {"measurement": "Observations (necropsy)", "setting": "[2]; group B-2, healthy rats, 0.1 mg, 2 months, 2 animals, listed as Mito", "result": "Greenish liquid in abdomen, peritonitis; also recorded: high degree of adhesions"},
      {"measurement": "Observations (necropsy)", "setting": "[2]; group B-2, healthy rats, 0.1 mg, 2 months, 2 animals, listed as mitomycin", "result": "the intestine and an omentum are hematic"},
      {"measurement": "Observations (necropsy)", "setting": "[2]; group B-2, healthy rats, 0.1 mg, 24 h, 2 animals", "result": "Evisceration"}
    ]}
  ]
}
